# Biological target: T1, histamine H3 receptor (Homo sapiens, UniProt Q9Y5N1)
# T1 construct: expressed in transfected cells; host or cells: CHO K1 cells carrying pSwitch, transfected with pGeneH3 and induced with mifepristone; clone 3H3; membranes
# Experiment: Histamine H3 functional antagonist assay ([35S]GTPγS SPA, membranes of CHO K1 cells expressing human H3)
# Format: biochemical
# Details: functional antagonism of histamine (0.3 μM) stimulated [35S]GTPγS binding, membranes of CHO K1 cells with human histamine H3
# Experimental: A membrane preparation containing histamine H3 receptors may be prepared in accordance with the following procedures:
# Ligated DNA was transformed into competent DH5α E. coli host bacterial cells and plated onto Luria Broth (LB) agar containing Zeocin™ (an antibiotic which allows the selection of cells expressing the sh ble gene which is present on pGene and pSwitch) at 50 μg ml^−1. Colonies containing the re-ligated plasmid were identified by restriction analysis. DNA for transfection into mammalian cells was prepared from 250 ml cultures of the host bacterium containing the pGeneH3 plasmid and isolated using a DNA preparation kit (Qiagen Midi-Prep) as per manufacturers guidelines (Qiagen).
# CHO K1 cells previously transfected with the pSwitch regulatory plasmid (InVitrogen) were seeded at 2×10e6 cells per T75 flask in Complete Medium, containing Hams F12 (GIBCOBRL, Life Technologies) medium supplemented with 10% v/v dialysed foetal bovine serum, L-glutamine, and hygromycin (100 μg ml^−1), 24 hours prior to use. Plasmid DNA was transfected into the cells using Lipofectamine plus according to the manufacturers guidelines (InVitrogen). 48 hours post transfection cells were placed into complete medium supplemented with 500 μg ml^−1 Zeocin™.
# 10-14 days post selection 10 nM Mifepristone (InVitrogen), was added to the culture medium to induce the expression of the receptor. […] Approximately 1×10e7 cells were examined for receptor expression by staining with a rabbit polyclonal antibody, 4a, raised against the N-terminal domain of the histamine H3 receptor, incubated on ice for 60 minutes, followed by two washes in sorting medium. […] Following two further washes with Sorting Medium, cells were filtered through a 50 μm Filcon™ (BD Biosciences) and then analysed on a FACS Vantage SE Flow Cytometer fitted with an Automatic Cell Deposition Unit. […] Positively stained cells were sorted as single cells into 96-well plates, containing Complete Medium containing 500 μg ml^−1 Zeocin™ and allowed to expand before reanalysis for receptor expression via antibody and ligand binding studies.
# All steps of the protocol are carried out at 4° C. and with pre-cooled reagents. The cell pellet is resuspended in 10 volumes of buffer A2 containing 50 mM N-2-hydroxyethylpiperazine-N′-2-ethanesulfonic acid (HEPES)(pH 7.40) supplemented with 10e−4M leupeptin (acetyl-leucyl-leucyl-arginal; Sigma L2884), 25 μg/ml bacitracin (Sigma B0125), 1 mM ethylenediamine tetra-acetic acid (EDTA), 1 mM phenylmethylsulfonyl fluoride (PMSF) and 2×10e−6M pepstain A (Sigma). The cells are then homogenised by 2×15 second bursts in a 1 litre glass Waring blender, followed by centrifugation at 500 g for 20 minutes. The supernatant is then spun at 48,000 g.for 30 minutes. The pellet is resuspended in 4 volumes of buffer A2 by vortexing for 5 seconds, followed by homogenisation in a Dounce homogeniser (10-15 strokes). At this point the preparation is aliquoted into polypropylene tubes and stored at −70° C. […]
# The plate is then incubated on a shaker at room temperature for 30 minutes followed by centrifugation for 5 minutes at 1500 rpm. The plate is read between 3 and 6 hours after completion of centrifuge run in a Wallac Microbeta counter on a 1 minute normalised tritium count protocol. Data is analysed using a 4-parameter logistic equation. Basal activity used as minimum i.e. histamine not added to well.
# T1 sequence (Q9Y5N1 whole entry): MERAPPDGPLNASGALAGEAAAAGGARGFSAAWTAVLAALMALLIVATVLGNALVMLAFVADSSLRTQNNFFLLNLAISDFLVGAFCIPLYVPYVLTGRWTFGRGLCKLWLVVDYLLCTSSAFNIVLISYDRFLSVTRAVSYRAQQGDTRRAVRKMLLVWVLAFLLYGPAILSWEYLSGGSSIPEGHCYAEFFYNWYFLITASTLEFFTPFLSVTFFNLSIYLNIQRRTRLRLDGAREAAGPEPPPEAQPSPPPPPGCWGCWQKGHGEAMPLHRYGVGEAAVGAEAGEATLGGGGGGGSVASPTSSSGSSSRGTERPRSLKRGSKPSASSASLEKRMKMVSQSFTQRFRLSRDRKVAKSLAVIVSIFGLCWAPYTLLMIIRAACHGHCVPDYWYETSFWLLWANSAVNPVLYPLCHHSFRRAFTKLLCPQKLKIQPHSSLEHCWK
row,Structure (SMILES),Kb
1,"Cc1noc(-c2ccc(N3CCC(C(=O)N4CCCN(C(C)C)CC4)CC3)cc2)n1 [Example E168, 1-Isopropyl-4-{1-[4-(3-methyl-1,2,4-oxadiazol-5-yl)phenyl]-piperidine-4-carbonyl}-[1,4]-diazepane]",< 3.16 nM
2,"CC(=O)Nc1ccc(N2CCC(C(=O)N3CCCN(C(C)C)CC3)CC2)cc1F [Example E169, 1-Isopropyl-4-[1-(4-acetamido-3-fluorophenyl)-piperidine4-carbonyl]-[1,4]-diazepane]",< 3.16 nM
3,"CC(=O)c1ccc(N2CCC(C(=O)N3CCCN(C4CCC4)CC3)CC2)cc1 [Example E170, 1-Cyclobutyl-4-[1-(4-acetylphenyl)-piperidine-4-carbonyl]-[1,4]-diazepane]",< 3.16 nM
4,"N#Cc1ccc(N2CCC(C(=O)N3CCCN(C4CCC4)CC3)CC2)cn1 [Example E179, 1-Cyclobutyl-4-[1-(6-cyano-pyridin-3-yl)-piperidine-4-carbonyl]-[1,4]-diazepane]",< 3.16 nM
5,"CC(C)N1CCCN(C(=O)C2CCN(c3ccc(C#N)nc3)CC2)CC1 [Example E180, 1-Isopropyl-4-[1-(6-cyano-pyridin-3-yl)-piperidine-4-carbonyl]-[1,4]-diazepane]",< 3.16 nM
6,"Cc1noc(-c2ccc(N3CCC(C(=O)N4CCN(C(C)C)CC4)CC3)cc2)n1 [Example E185, 1-Isopropyl-4-{1-[4-(3-methyl-1,2,4-oxadiazol-5-yl)phenyl]-piperidine-4-carbonyl}-piperazine]",< 3.16 nM
7,"CC(C)N1CCCN(C(=O)C2CCN(c3cnc(C(F)(F)F)nc3)CC2)CC1 [Example E198, 1-Isopropyl-4-[1-(2-trifluoromethylpyrimidin-5-yl)-piperidine-4-carbonyl]-[1,4]-diazepane]",< 3.16 nM

# — patent publication US7592347B2, “Piperazine derivates and their use for the treatment of neurological and psychiatric diseases” (Glaxo Group Limited, priority 2003, dated 2009)
